Results on 102 compounds are retold here after PubChem BioAssay AID449725 (University of Pittsburgh Molecular Library Screening Center, 2010).

The source made the active and inactive calls. How the calls were made is not given here.

The test has as its system IMR-90 human lung fibroblast viability counter screen. Nature of the test: IMR-90 fibroblast viability reduction, dose response, cytotoxicity control, cell-based, IC50 (AID 449725).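 Further: 48 hour compound exposure before the viability read.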
Usually IC50 stands for the point on the concentration scale where inhibition reaches its midpoint. Regarding `COc1ccc(NC(=O)Nc2ccccc2C(=O)O)cc1`, the IC50 is > 25 µM (inactive).

In the case of `O=C(Cn1sc2ccccc2c1=O)Nc1ccccc1F`, the IC50 is > 25 µM (inactive).

Regarding `CC(C)c1cccc(C(=O)Nc2cc(Cl)ccc2C(=O)O)c1`, the IC50 was > 25 µM (inactive).

For `Cc1ccc(C(=O)Nc2cc(Cl)ccc2C(=O)O)cc1`, the IC50 was > 25 µM (inactive).

With `COc1ccc(C(=O)Nc2cc(Cl)ccc2O)cc1`, the IC50 was > 25 µM (inactive).

With `Cc1ccccc1-n1sc2cc(F)ccc2c1=O`, the IC50 is 5.6 µM.

For `Cc1ccccc1N1Cc2ccccc2C1=O`, the IC50 is > 25 µM (inactive).

Regarding `CC(C)(C)c1ccc(C(=O)N2CCC(=O)c3ccc(Cl)cc32)cc1`, the IC50 was > 25 µM (inactive).

On to `COC(=O)c1ccc(Cl)cc1NS(=O)(=O)c1ccc(OC)cc1`, for which the IC50 is 13.8 µM.

Regarding `O=C(Cn1sc2ccccc2c1=O)NCc1ccccc1`, the half-maximal inhibitory concentration (IC50) was 6.37 µM.

As to `CCOC(=O)c1ccncc1NC(=O)c1ccc(OC)cc1`, the IC50 was > 25 µM (inactive).

Regarding `O=C(Cn1sc2ccccc2c1=O)N1CCCCC1`, the IC50 is 16.5 µM.

For `COc1ccc(C(=O)Nc2cc(Cl)ccc2C#N)cc1`, the IC50 is > 25 µM (inactive).

As to `Cc1ccc(-n2sc3ccccc3c2=O)cc1`, the IC50 was 18.3 µM.

Regarding `CC(C(=O)Nc1ccccc1)n1sc2ccccc2c1=O` (configuration not stated), the IC50 is 16.3 µM.

For `CCc1ccc(C(=O)Nc2cc(Br)ccc2C(=O)O)cc1`, the IC50 is > 25 µM (inactive).

Take `O=C(O)c1ccc(Cl)cc1NC(=O)N1CCOCC1`: the IC50 was > 25 µM (inactive).

Regarding `O=c1c2c(Br)cccc2sn1-c1ccccc1`, the IC50 was > 25 µM (inactive).

On to `O=c1c2cc(F)ccc2sn1-c1ccccc1Cl`, for which the IC50 is 6.16 µM.

Turning to `O=C(Cn1sc2ccccc2c1=O)Nc1ccc(I)cc1`, the IC50 was > 25 µM (inactive).

Take `CC(C)(C)c1ccc(C(=O)Nc2cc(Cl)ccc2C(=O)O)cc1`: the IC50 is > 25 µM (inactive).

With `CC(C)(C)c1ccc(C(=O)Nc2cc(Cl)ccc2-c2nn[nH]n2)cc1`, the IC50 is > 25 µM (inactive).

In the case of `N#Cc1ccccc1NC(=O)Cn1sc2ccccc2c1=O`, the IC50 is > 25 µM (inactive).

`CC(C)(C)c1ccc(C(=O)Nc2cc(Cl)ccc2O)cc1`: the IC50 is > 25 µM (inactive).

Consider `O=C(Nc1cc(Cl)ccc1C(=O)O)c1ccoc1`, for which the IC50 was > 25 µM (inactive).

With `COc1ccccc1NC(=O)Cn1sc2ccccc2c1=O`, the concentration for half-maximal inhibition (IC50) was 12.3 µM.

On to `COc1ccc(Nc2cc(Cl)ccc2C(=O)O)cc1`, for which the IC50 was > 25 µM (inactive).

`CC(C)Cc1ccc(C(=O)Nc2cc(Cl)ccc2C(=O)O)cc1`: the IC50 was > 25 µM (inactive).

Take `COc1ccc(C(=O)Nc2cc(OC)ccc2C(=O)O)cc1`: the IC50 was > 25 µM (inactive).

Regarding `CCCc1ccc(C(=O)Nc2cc(Cl)ccc2C(=O)O)cc1`, the IC50 is > 25 µM (inactive).

For the compound `COc1ccc(C(=O)Nc2cc(Cl)ccc2-c2nn[nH]n2)cc1`, the IC50 is > 25 µM (inactive).

As for `O=c1c2cc(F)ccc2sn1-c1ccccc1`, the IC50 is > 25 µM (inactive).

`O=C(c1ccccc1)n1sc2ccccc2c1=O`: the IC50 is 17 µM.

`OB1OCc2cc(C(F)(F)F)ccc21`: the IC50 is > 25 µM (inactive).

For the compound `O=C(Cn1sc2ccccc2c1=O)Nc1ccc(Cl)cc1`, the IC50 was > 25 µM (inactive).

With `O=c1c2cc([N+](=O)[O-])ccc2sn1-c1ccccc1`, the IC50 is 10.2 µM.

In the case of `O=c1c2cc(Br)ccc2sn1-c1ccccc1`, the IC50 was > 25 µM (inactive).

Turning to `Cn1sc2ccccc2c1=O`, the half-maximal inhibitory concentration (IC50) is 2.32 µM.

Take `COc1cccc(C(=O)Nc2cc(Cl)ccc2C(=O)O)c1`: the IC50 is > 25 µM (inactive).

For the compound `Cc1ccc(C(=O)Nc2cc(Cl)ccc2C(=O)O)c(C)c1`, the IC50 is > 25 µM (inactive).

As to `CCOC(=O)Cn1sc2ccccc2c1=O`, the IC50 is 6.35 µM.

`O=C(Cn1sc2ccccc2c1=O)N1CCOCC1`: the IC50 was > 25 µM (inactive).

Turning to `O=C(Nc1ccccc1)n1sc2ccccc2c1=O`, the IC50 was 1.66 µM.

On to `COc1ccc(C(=O)Nc2cc(Cl)c(Br)cc2C(=O)O)cc1`, for which the IC50 is > 25 µM (inactive).

For the compound `O=C(Nc1cc(Cl)ccc1C(=O)O)c1cocn1`, the IC50 was > 25 µM (inactive).

As for `O=c1s[nH]c2ccccc12`, the IC50 was > 25 µM (inactive).

`O=c1c2ccccc2on1-c1ccccc1`: the IC50 is > 25 µM (inactive).

On to `COc1ccccc1C(=O)Nc1cc(Cl)ccc1C(=O)O`, for which the IC50 is > 25 µM (inactive).

Take `COc1ccc2c(=O)n(-c3ccccc3)sc2c1`: the IC50 was > 25 µM (inactive).

Turning to `CN(C)c1cccc(NC(=O)Cn2sc3ccccc3c2=O)c1`, the IC50 is > 25 µM (inactive).

For `COc1ccc(C(=O)Nc2cc(F)ccc2C(=O)O)cc1`, the IC50 is > 25 µM (inactive).

As for `O=C1c2ccccc2S(=O)N1c1cccc(F)c1` (configuration not stated), the IC50 is > 25 µM (inactive).

On to `COc1ccc(C(=O)N(C)c2cc(Cl)ccc2C(=O)O)cc1`, for which the IC50 is > 25 µM (inactive).

Take `COc1ccc2sn(-c3ccccc3)c(=O)c2c1`: the IC50 was > 25 µM (inactive).

Consider `COc1ccc(C(=O)Nc2c(C(=O)O)ccc(Cl)c2Cl)cc1`, for which the IC50 was > 25 µM (inactive).

Consider `COc1ccccc1-n1sc2ccccc2c1=O`, for which the concentration for half-maximal inhibition (IC50) was 6.29 µM.

Consider `COC(=O)c1ccc(Cl)cc1NC(=O)c1ccccc1OC`, for which the IC50 was > 25 µM (inactive).

As to `COc1ccc(NC(=O)c2ccc(Cl)cc2C(=O)O)cc1`, the IC50 was > 25 µM (inactive).

On to `COC(=O)c1ccc(Cl)cc1NC(=O)c1ccc(OC)cc1`, for which the IC50 was > 25 µM (inactive).

On to `COc1ccc(C(=O)Nc2cc(C(F)(F)F)ccc2C(=O)O)cc1`, for which the IC50 is > 25 µM (inactive).

Turning to `O=c1c2cc(F)c(F)cc2sn1-c1ccccc1`, the IC50 is > 25 µM (inactive).

Turning to `O=C(Cn1sc2ccccc2c1=O)Nc1ccc(F)cc1`, the IC50 is 6.87 µM.

As to `O=c1c(Br)csn1-c1ccc(Br)cc1`, the IC50 is > 25 µM (inactive).

On to `O=C1CCN(C(=O)Nc2cc(Cl)ccc2C(=O)O)CC1`, for which the IC50 is > 25 µM (inactive).

Take `CC(C)(C)c1ccc(C(=O)Nc2cc(Br)ccc2C(=O)O)cc1`: the IC50 is > 25 µM (inactive).

Take `COc1ccc(C(=O)Nc2cc(Cl)ccc2[N+](=O)[O-])cc1`: the IC50 was > 25 µM (inactive).

As to `COc1ccc(C(=O)Nc2cccc(Cl)c2)cc1`, the IC50 was > 25 µM (inactive).

As to `C=C(C)c1ccc(C(=O)Nc2cc(Cl)ccc2C(=O)O)cc1`, the IC50 was > 25 µM (inactive).

On to `COc1ccc(NC(=O)c2ccccc2SCc2ccccc2)cc1`, for which the IC50 was > 25 µM (inactive).

On to `CC1(c2ccc(C(=O)Nc3cc(Cl)ccc3C(=O)O)cc2)CC1`, for which the IC50 is > 25 µM (inactive).

`COc1ccc2c(c1)CN(c1cc(Cl)ccc1C(=O)O)C2=O`: the IC50 is > 25 µM (inactive).

For `CC(C)c1ccc(C(=O)Nc2cc(Cl)ccc2C(=O)O)cc1`, the IC50 was > 25 µM (inactive).

As to `O=C(Nc1cc(Cl)ccc1C(=O)O)c1ccc2ccccc2c1`, the IC50 is > 25 µM (inactive).

For `N#Cc1ccc2sn(-c3ccccc3)c(=O)c2c1`, the IC50 was > 25 µM (inactive).

On to `CC(C)(C)c1ccc(C(=O)Nc2cc(Cl)c(Cl)cc2C(=O)O)cc1`, for which the IC50 is > 25 µM (inactive).

As for `O=C(Nc1cc(Cl)ccc1C(=O)O)c1ccsc1`, the IC50 is > 25 µM (inactive).

With `O=C1c2cccc(Br)c2SCN1c1ccccc1`, the IC50 was > 25 µM (inactive).

`O=C(Cn1sc2ccccc2c1=O)Nc1cccc(Br)c1`: the IC50 was > 25 µM (inactive).

Take `O=C(Nc1cc(Cl)ccc1C(=O)O)c1ccc(Cl)cc1`: the IC50 was > 25 µM (inactive).

Take `COc1ccc(C(=O)N2CCC(=O)c3ccc(Cl)cc32)cc1`: the IC50 is > 25 µM (inactive).

With `COC(=O)c1ccc(Cl)cc1NC(=O)c1ccc(Cl)cc1`, the IC50 is > 25 µM (inactive).

With `COc1ccc(C(=O)NC(CC(=O)O)c2ccccc2)cc1` (configuration not stated), the IC50 was > 25 µM (inactive).

Consider `CCOc1ccc(C(=O)Nc2cc(Cl)ccc2C(=O)O)cc1`, for which the IC50 is > 25 µM (inactive).

On to `O=c1c2cc(F)ccc2sn1-c1ccc(Cl)cc1`, for which the IC50 was > 25 µM (inactive).

As for `COc1ccc(NC(=O)c2ccccc2C(=O)O)cc1`, the IC50 is > 25 µM (inactive).

As to `O=C(Cn1sc2ccccc2c1=O)Nc1ccccc1I`, the IC50 is > 25 µM (inactive).

As to `COc1cccc(-n2sc3ccccc3c2=O)c1`, the IC50 was 6.34 µM.

For `O=C(Cn1sc2ccccc2c1=O)Nc1cccc(C(F)(F)F)c1`, the IC50 was > 25 µM (inactive).

With `CC(=O)Nc1ccc2sn(-c3ccccc3)c(=O)c2c1`, the 50% inhibitory concentration (IC50) was 24.5 µM.

In the case of `O=c1c2ccc(F)cc2sn1-c1ccccc1`, the IC50 is 7.17 µM.

Take `COc1ccc(C(=O)Nc2ccccc2-c2nn[nH]n2)cc1`: the IC50 is > 25 µM (inactive).

In the case of `CC(C)(C)c1ccc(C(=O)Nc2c(C(=O)O)ccc(Cl)c2Cl)cc1`, the IC50 is > 25 µM (inactive).

Turning to `CCCCCC(=O)Nc1cc(Cl)ccc1C(=O)O`, the IC50 was > 25 µM (inactive).

Take `O=C(Nc1cc(Cl)ccc1C(=O)O)c1ccc2c(c1)CCCC2`: the IC50 is > 25 µM (inactive).

Take `O=C(Nc1cc(Cl)ccc1C(=O)O)c1ccc(I)cc1`: the IC50 was > 25 µM (inactive).

Take `COc1ccc(-n2sc3ccccc3c2=O)cc1`: the IC50 was 5.54 µM.

`COc1ccc(C(=O)NC(C(=O)O)c2ccccc2)cc1` (configuration not stated): the IC50 was > 25 µM (inactive).

For the compound `COc1ccc(NC(=O)Cn2sc3ccccc3c2=O)cc1`, the half-maximal inhibitory concentration (IC50) is 6.49 µM.

In the case of `O=C(O)c1ccccc1NC(=O)c1ccccc1C(=O)O`, the IC50 was > 25 µM (inactive).

Turning to `COc1ccc(C(=O)Nc2cc(Cl)c(C)cc2C(=O)O)cc1`, the IC50 was > 25 µM (inactive).

As to `O=C(Nc1cc(Cl)ccc1C(=O)O)c1ccc(OC(F)(F)F)cc1`, the IC50 is > 25 µM (inactive).

For `Cc1cc(=O)n(-c2ccccc2)s1`, the IC50 was 9.14 µM.
